From US20060211705A1, “'N-(2-chloro-6-methylphenyl)-2-[[6-[4-(2-hydroxyethyl)-1-piperazinyl]-2-methyl-4-pyrimidinyl]amino]-5-thiazolecarboxamides metabolites” (priority 2005, published 2006) come the findings set out here.

Series [1] in a line: Metabolite profile of [14C] compound (I) in rat hepatocyte incubations. In kind it is in vitro ADME, Sprague-Dawley rat. The conditions noted are these: (Ia) 20 μM, 3 h, 37° C., ~2 million cells/mL; relative distribution in radiochromatographic profile. The method, then:
The compound of formula (I) was used as the [^14C] compound (Ia) (30.4 μCi/mg, radiochemical purity 99.2%), as the monohydrate of the free base. The C-14 label was on the carbon in the 2-position of the thiazole ring.
Freshly isolated rat hepatocyte preparations were prepared from one male Sprague-Dawley rat. Rat Hepatocytes were prepared according to a standard procedure (Seglen, PO. Preparation of isolated rat liver cells. Methods Cell Biol., 1976, 13: 29-83). Cryopreserved cynomolgus monkey hepatocytes (male, pooled, n=6) and human hepatocytes (3 individual preparation) were purchased from In Vitro Technologies (Baltimore, Md.). Microsomes from male SD Rats (pooled, n=200, 20 mg/mL) and male cynomolgus monkeys (pooled, n=8, 20 mg/mL) were obtained from Xenotech LLC, Kansas City, Kans. Human liver microsomes (male, pooled, n=38) were from BD-Gentest, Woburn, Mass.
A 6 mM stock solution of the compound of formula (Ia) (the [^14C] of the compound of formula (I) was prepared at by dissolving 3.7 mg of the compound of formula (Ia) into 1:1 acetonitrile/DMSO. The 2 mM stock solution of the compound of formula (Ia) was obtained by diluting an aliquot of the 6 mM stock solution 3-fold with acetonitrile.
Rat hepatocyte suspensions were provided at concentrations of 9.1 million cells/mL with a viability of 90%. The cell suspension was diluted accordingly with modified Krebs-Henseleit buffer to give a final concentration of 2 million cells/mL.
Viability of the hepatocytes was checked using a Trypan Blue exclusion assay and a hemocytometer. A mixture of 0.1 mL of the hepatocyte suspension and 0.1 mL of trypan blue solution were diluted with 0.8 mL of Krebs-Henseleit buffer. The solution was gently mixed and plated onto a Levy hemocytometer (Hausser Scientific) and the viable cells (unstained) were counted under a light microscope. The viability of the hepatocytes ranged from 77% to 90% at the beginning of the incubations.
Hepatocyte incubations were conducted at 37° C. for 3 h in a NAPCO CO2 6000 incubator (VWR Scientific Products) under a 5% CO2 atmosphere using an orbital shaker at 90 rpm. For each incubation, the final concentration of compound (Ia) was 20 μM and the hepatocyte concentrations were ˜2 million cells/mL. A control incubation, in the absence of hepatocytes, was also performed for 3 h. The incubations were stopped by adding one volume of ice-cold acetonitrile. Each 0.5 mL incubation contained 0.1 M potassium phosphate buffer (pH 7.4), 2.5 mM MgCl2, 2 mg/mL microsomal protein, and 2.0 mM NADPH. The final substrate concentration was 20 μM. The mixtures were incubated in a shaking water bath at 37° C. for 15 min. Control incubations in the absence of microsomes or NADPH were performed for each species. The reactions were stopped with the addition of 1 mL of ice-cold acetonitrile.
HPLC was performed on a Waters Alliance™ system equipped with Waters 2695 pumps and a photodiode array detector (Waters 2996). A Phenomenex Synergy Polar-RP® column (4.6×250 mm, 5 micron) was used for metabolite separation. All HPLC analyses were performed at 1 mL/min flow rate at room temperature. Two HPLC mobile phase and gradient systems were used because all metabolites could not be completely separated on either of the individual HPLC systems. The first system consisted of (A) water with 0.1% formic acid and (B) acetonitrile with 0.1% formic acid as mobile phase. The linear gradient was as follows: 0 min, 20% B; 1 min, 20% B; 41 min, 35% B; 42 min, 90% B; 44 min, 90% B. The column was re-equilibrated at 20% B for 6 min before the next injection. The second HPLC system was used to separate certain co-eluting metabolites that could not be separated by the first system. The mobile phase consisted of (A) water with 0.1% triflouroacetic acid (TFA) and (B) acetonitrile with 0.1% TFA. The gradient was as follows: 0 min, 20% B; 1 min, 20% B; 51 min, 35% B; 52 min, 90% B; 54 min 90% B. The column was equilibrated at 20% B for 6 min prior to the next injection. […]

Series [2] is described as follows: Radioactive metabolites in urine and bile after IV administration of [14C] compound (I) to bile-duct cannulated monkeys. As to conditions: IV infusion 2 mg/kg; for Metabolites in BDC-Monkeys (0-72 hr), Bile, % Dose / Metabolites in BDC-Monkeys (0-72 hr), Bile, % Rad: bile 0-72 hr; for Metabolites in BDC-Monkeys (0-72 hr), Urine, % Dose / Metabolites in BDC-Monkeys (0-72 hr), Urine, % Rad (% of total radioactivity in sample): urine 0-72 hr. In kind it is in vivo, monkey. The procedure: A separate bile-duct cannulated (BDC) monkey study was also conducted. […]
The C-14 label was on the carbon-2 of the thiazole ring.
HPLC was performed on an Agilent 1100™ system equipped with binary pumps, autoinjector, and a column heater. A Phenomenex Synergy Polar-RP® column (4.6×250 mm, 5 micron) was used for metabolite separation. All HPLC analyses were performed at 1 mL/min flow rate at 35° C. The HPLC mobile phase consisted of (A) water with 0.1% formic acid and (B) acetonitrile with 0.1% formic acid.
Each fraction of column eluent was evaporated to dryness on a Savant Speed-Vac (Savant Instruments Inc., Holbrook, N.Y.) and counted for radioactivity with a Packard Top Count® microplate scintillation analyzer (Packard Biosciences, Downers Grove, Ill.).
The pooled monkey and human urine samples (3-5 mL) were extracted with 2 volumes of acetonitrile/acetone (1:1). The mixtures were vortex mixed, sonicated and centrifuged at 3500 rpm for 10 min. The supernatants were evaporated to dryness. The residue was suspended in 0.3-0.5 mL of 30% acetonitrile in water and centrifuged at 13000 rpm for 5 min. Aliquots of the supernatants were injected onto the HPLC or analyzed by LSC for radioactivity recovery. Pooled urine samples from BDC monkeys and rats were centrifuged at 13000 rpm for 10 min and injected onto the HPLC for profiling without further treatment.
A pooled bile sample (0-72 h) from BDC monkeys was diluted fifteen-fold with 20% acetonitrile in water with 0.1% formic acid. The diluted sample was centrifuged at 13000 rpm for 5 min. Aliquots of the supernatant was injected onto HPLC or analyzed by LSC for radioactivity recovery.
The LC/MS system used for analysis of plasma, urine, bile, and fecal samples consisted of an Agilent 1100™ HPLC system connected to a Finnigan LCQ-DecaXP mass spectrometer. Samples were analyzed using positive electrospray ionization. The capillary temperature used for analysis was 320° C., and the nitrogen gas flow rate, spray current, and voltages were adjusted to give maximum sensitivity. The HPLC conditions were described in section 3.3.1.
Counts per min (CPM) were determined on a Packard TopCount NXT microplate scintillation and luminescence counter. For each injection, the average CPM value (2-4 CPM) obtained from fractions between 2-3 min (column void) in the chromatogram was subtracted from the CPM value of each fraction. Biotransformation profiles were prepared by plotting the background subtracted CPM values against time-after-injection. Radioactivity peaks in the biotransformation profiles were reported as a percentage of the total radioactivity (after background subtraction) collected during the entire HPLC run.

`Cc1nc(Nc2ncc(C(=O)Nc3c(C)cccc3Cl)s2)cc(N2CC[N+]([O-])(CCO)CC2)n1` [M5 (III)]: the “% of Radioactivity in Hepatocytes, Rat” value in series [1] is 2.7%. Besides, in series [2], the “Metabolites in BDC-Monkeys (0-72 hr), Bile, % Dose” value (“Metabolites … Bile, % Dose” below) is 5.0%; the “Metabolites in BDC-Monkeys (0-72 hr), Bile, % Rad” value (shortened to “Metabolites … Bile, % Rad”) is listed as 7.4%; the “Metabolites in BDC-Monkeys (0-72 hr), Urine, % Dose” value (“Metabolites … Urine, % Dose” below) was 7.0%; the “Metabolites in BDC-Monkeys (0-72 hr), Urine, % Rad (% of total radioactivity in sample)” value came to 70.7%.

For the molecule `Cc1nc(Nc2ncc(C(=O)Nc3c(C)cc(O)cc3Cl)s2)cc(N2CCN(CCO)CC2)n1` [M20 (V)], the “% of Radioactivity in Hepatocytes, Rat” value in series [1] amounted to 1.1%. Also, in series [2], the “Metabolites … Bile, % Dose” value stood at 2.4%; the “Metabolites … Bile, % Rad” value amounted to 3.5%; the “Metabolites … Urine, % Dose” value was 0.3%; the “Metabolites in BDC-Monkeys (0-72 hr), Urine, % Rad (% of total radioactivity in sample)” value was 2.7%.

On to `Cc1nc(Nc2ncc(C(=O)Nc3c(C)cccc3Cl)s2)cc(N2CCN(CC(=O)O)CC2)n1` [M6 (IV), 2-(4-(6-(5-((2-Chloro-6-methylphenyl)carbamoyl)thiazol-2-ylamino)-2-methylpyrimidin-4-yl)piperazin-1-yl)acetic acid], for which the “% of Radioactivity in Hepatocytes, Rat” value in series [1] was found to be 4.9%. In series [2], the “Metabolites … Bile, % Dose” value was 6.3%; the “Metabolites … Bile, % Rad” value was 9.4%; the “Metabolites … Urine, % Dose” value is recorded as 0.3%; the “Metabolites in BDC-Monkeys (0-72 hr), Urine, % Rad (% of total radioactivity in sample)” value is given as 2.8%.

Regarding `Cc1nc(Nc2ncc(C(=O)Nc3c(Cl)cccc3CO)s2)cc(N2CCN(CCO)CC2)n1` [M24 (VI), N-(2-chloro-6-(hydroxymethyl)phenyl)-2-(6-(4-(2-hydroxyethyl)piperazin-1-yl)-2-methylpyrimidin-4-ylamino)thiazole-5-carboxamide], the “% of Radioactivity in Hepatocytes, Rat” value in series [1] was 1.1%. Moreover, in series [2], the “Metabolites … Bile, % Dose” value is listed as 3.0%; the “Metabolites … Bile, % Rad” value was determined as 4.4%; the “Metabolites … Urine, % Dose” value stood at 0.1%; the “Metabolites in BDC-Monkeys (0-72 hr), Urine, % Rad (% of total radioactivity in sample)” value turned out to be 1.4%.

With `Cc1nc(Nc2ncc(C(=O)Nc3c(C)cccc3Cl)s2)cc(N2CCNCC2)n1` [M4 (II)], the “% of Radioactivity in Hepatocytes, Rat” value in series [1] was found to be 1.6%. In series [2], the “Metabolites … Bile, % Dose” value came to 0.5% and the “Metabolites … Bile, % Rad” value worked out at 0.7%.

As to `Cc1nc(Nc2ncc(C(=O)Nc3c(C)cccc3Cl)s2)cc(N2CCN(CCO)CC2)n1` [Parent (I), N-(2-Chloro-6-methylphenyl)-2-[[6-[4-(2-hydroxyethyl)-1-piperazinyl]-2-methyl-4-pyrimidinyl]amino]-5-thiazolecarboxamide], in series [1], the “% of Radioactivity in Hepatocytes, Rat” value is 88.8%. Moreover, in series [2], the “Metabolites … Bile, % Dose” value was determined as 3.2%; the “Metabolites … Bile, % Rad” value stood at 4.7%; the “Metabolites … Urine, % Dose” value is listed as 0.1%; the “Metabolites in BDC-Monkeys (0-72 hr), Urine, % Rad (% of total radioactivity in sample)” value is listed as 1.4%.
